According to PubChem BioAssay AID256 (DTP/NCI, 2004):
Where “and” joins values, the source holds several entries; their conditions need not be identical. Equal entries are not always repeated. Toxic doses and inconclusive results are not listed. Rule for the calls: active = survival T/C of 150% or more; inactive = T/C below 125% in these data.

System: CD2F1 mice, L1210 leukemia ip, survival T/C
Assay: NCI In Vivo Anticancer Drug Screen. Data for tumor model L1210 Leukemia (intraperitoneal) in CD2F1 (CDF1) mice
Conditions: endpoint: mean survival time, higher = longer survival
Method in brief: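 In this screen, transplantable tumors were grown in mice given either the compound or its vehicle. Results were expressed as the treated measurement relative to the control measurement.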

Measured: T/C

Cc1cc(NCCCCCCNc2cc(C)nc3ccc(N)cc23)c2cc(N)ccc2n1
inactive: dose: 0.16 mg/kg/injection, schedule: Q08HX006 (iv), vehicle: water 103 % of control | dose: 0.31 mg/kg/injection, schedule: Q08HX006 (iv), vehicle: water 104 % of control | dose: 0.4 mg/kg/injection, schedule: Q08HX009 (ip), vehicle: water 105 % of control | dose: 0.6 mg/kg/injection, schedule: Q01DX009 (ip), vehicle: water 98 % of control | dose: 0.6 mg/kg/injection, schedule: Q08HX009 (iv), vehicle: water 88 % of control | dose: 0.63 mg/kg/injection, schedule: Q08HX006 (iv), vehicle: water 92 % of control | dose: 0.8 mg/kg/injection, schedule: Q08HX009 (ip), vehicle: water 101 % of control | dose: 1.1 mg/kg/injection, schedule: Q01DX005 (iv), vehicle: water 104 % of control | dose: 1.2 mg/kg/injection, schedule: Q01DX009 (ip), vehicle: water 97 % of control | dose: 1.25 mg/kg/injection, schedule: Q08HX006 (iv), vehicle: water 103 % of control | dose: 1.3 mg/kg/injection, schedule: Q08HX009 (iv), vehicle: water 94 % of control | dose: 1.4 mg/kg/injection, schedule: Q01DX005 (iv), vehicle: water 98 % of control | dose: 1.56 mg/kg/injection, schedule: Q01DX009 (ip), vehicle: water 103 % of control and 111 % of control | dose: 1.6 mg/kg/injection, schedule: Q08HX009 (ip), vehicle: water 104 % of control | dose: 1.9 mg/kg/injection, schedule: Q01DX005 (iv), vehicle: water 101 % of control | dose: 1.9 mg/kg/injection, schedule: Q08HX009 (iv), vehicle: saline with Tween-80 92 % of control | dose: 2.4 mg/kg/injection, schedule: Q01DX009 (ip), vehicle: saline with Tween-80 114 % of control and 116 % of control | dose: 2.4 mg/kg/injection, schedule: Q01DX009 (ip), vehicle: water 111 % of control | dose: 2.5 mg/kg/injection, schedule: Q01DX005 (iv), vehicle: water 103 % of control | dose: 2.5 mg/kg/injection, schedule: Q08HX006 (iv), vehicle: water 105 % of control | dose: 2.5 mg/kg/injection, schedule: Q08HX009 (ip), vehicle: saline with Tween-80 119 % of control | dose: 2.5 mg/kg/injection, schedule: Q08HX009 (iv), vehicle: water 93 % of control | dose: 2.53 mg/kg/injection, schedule: Q01DX005 (iv), vehicle: water 95 % of control | dose: 2.58 mg/kg/injection, schedule: Q01DX005 (iv), vehicle: saline with Tween-80 101 % of control | dose: 3.0 mg/kg/injection, schedule: Q01DX009 (ip), vehicle: water 95 % of control and 107 % of control | dose: 3.13 mg/kg/injection, schedule: Q01DX009 (ip), vehicle: water 113 % of control and 124 % of control | dose: 3.2 mg/kg/injection, schedule: Q08HX009 (ip), vehicle: water 112 % of control | dose: 3.38 mg/kg/injection, schedule: Q01DX005 (iv), vehicle: water 100 % of control | dose: 3.38 mg/kg/injection, schedule: Q01DX009 (sc), vehicle: water 98 % of control | dose: 3.4 mg/kg/injection, schedule: Q01DX005 (iv), vehicle: water 101 % of control | dose: 3.44 mg/kg/injection, schedule: Q01DX009 (ip), vehicle: saline with Tween-80 114 % of control | dose: 3.44 mg/kg/injection, schedule: Q01DX009 (sc), vehicle: saline with Tween-80 100 % of control | dose: 3.7 mg/kg/injection, schedule: Q01DX009 (ip), vehicle: saline with Tween-80 117 % of control | dose: 3.8 mg/kg/injection, schedule: Q08HX006 (iv), vehicle: saline with Tween-80 101 % of control | dose: 3.8 mg/kg/injection, schedule: Q08HX009 (iv), vehicle: saline with Tween-80 88 % of control | dose: 4.51 mg/kg/injection, schedule: Q01DX009 (ip), vehicle: water 113 % of control | dose: 4.59 mg/kg/injection, schedule: Q01DX009 (ip), vehicle: saline with Tween-80 115 % of control | dose: 4.59 mg/kg/injection, schedule: Q01DX009 (sc), vehicle: saline with Tween-80 96 % of control | dose: 4.7 mg/kg/injection, schedule: Q01DX009 (ip), vehicle: saline with Tween-80 121 % of control | dose: 4.8 mg/kg/injection, schedule: Q01DX009 (ip), vehicle: water 114 % of control | dose: 5.0 mg/kg/injection, schedule: Q08HX006 (iv), vehicle: water 100 % of control | dose: 5.3 mg/kg/injection, schedule: Q01DX009 (ip), vehicle: water 114 % of control and 97 % of control | dose: 6.12 mg/kg/injection, schedule: Q01DX005 (iv), vehicle: saline with Tween-80 97 % of control | dose: 6.12 mg/kg/injection, schedule: Q01DX009 (ip), vehicle: saline with Tween-80 119 % of control | dose: 6.12 mg/kg/injection, schedule: Q01DX009 (sc), vehicle: saline with Tween-80 97 % of control
